In patent US10597366B2, “Aryl ethers and uses thereof” (Peloton Therapeutics, Inc., priority 2013, dated 2020):
Where two headings read alike, the source gives them in different places.

Experiments:
[1] = tested on: HIF-2α HIS TAG-PASB Domain; assay: HIF-2α Scintillation Proximity Assay (SPA); assay type: binding; conditions: compounds listed by structure and IUPAC name
Protocol: The percent inhibition was determined and IC50 values were calculated using the Dotmatics system based on the following equation: % inhibition=[(high control sample)/(high control low control)]×100.

[2] = tested on: 786-O-Hif-Luc cells (luciferase gene driven by multiple HIF responsive elements); assay: Luciferase Assay; assay type: cell-based; conditions: 24 h, read-out: Mean Luciferease EC50
Protocol: A pool of infected cells were then selected against 2 μg/mL of puromycin (P8833, Sigma) for 10 days followed by limited dilution to select single clones.
Each concentration was tested in triplicate. After about 24 hours, luciferase activity was determined using ONE-Glo Luciferase Assay Reagent (E6110, Promega) following the manufacturer's recommended procedure. EC50 were calculated by using Dotmatics software.

[3] = 786-O-Hif-Luc cells, about 24 hours

Row | EC50 [2, 3] [nM] | SMILES | other results
1 | 110 | CS(=O)(=NC#N)c1ccc(Oc2cc(F)cc(C#N)c2)c2c1[C@H](O)[C@H](F)C2 (stereo partly drawn) [Compound 302, N-(((2R,3S)-7-(3-cyano-5-fluorophenoxy)-2-fluoro-3-hydroxy-2,3-dihydro-1H-inden-4-yl)(methyl)(oxo)-λ^6-sulfanylidene)cyanamide] | 
2 | 2100 | C[C@@H]1Cc2c(Oc3cc(F)cc(C#N)c3)ccc(S(C)(=O)=O)c2[C@@H]1O [Compound 301, 3-fluoro-5-(((1R,2R)-1-hydroxy-2-methyl-7-(methylsulfonyl)-2,3-dihydro-1H-inden-4-yl)oxy)benzonitrile] | 
3 | 2100 | N#Cc1cc(F)cc(Oc2ccc(S(=N)(=O)C(F)(F)F)c3c2CCC3O)c1 (stereo not drawn) [Compound 258, 3-Fluoro-5-((1-hydroxy-7-(S-(trifluoromethyl)sulfonimidoyl)-2,3-dihydro-1H-inden-4-yl)oxy)benzonitrile] | 
4 | 1470 | CS(=O)(=O)c1ccc(Oc2cc(C#N)cc(C(F)F)c2)c2c1C(O)CC2 (stereo not shown) [Compound 249, 3-(Difluoromethyl)-5-((1-hydroxy-7-(methylsulfonyl)-2,3-dihydro-1H-inden-4-yl)oxy)benzonitrile] | 
5 | 1710 | O=S(=O)(c1ccc(Oc2c(F)ccc3[nH]ncc23)c2c1C(O)C(F)(F)C2)C(F)(F)F (stereo not shown) [Compound 244, 2,2-Difluoro-4-((5-fluoro-1H-indazol-4-yl)oxy)-7-((trifluoromethyl)sulfonyl)-2,3-dihydro-1H-inden-1-ol] | 
6 | 780 | CS(=O)(=O)c1ccc(Oc2cc(F)cc(C#N)c2)c2c1[C@H](O)C(F)(F)[C@H]2F [Compound 293, 3-fluoro-5-[(1S,3S)-2,2,3-trifluoro-1-hydroxy-7-methylsulfonyl-indan-4-yl]oxy-benzonitrile] | 
7 | 2280 | C[S+]([O-])c1ccc(Oc2cc(F)cc(C#N)c2)c2c1[C@H](O)C(F)(F)C2 (stereo partly drawn) [Compound 272, 3-[(1S)-2,2-Difluoro-1-hydroxy-7-methylsulfinyl-indan-4-yl]oxy-5-fluoro-benzonitrile] | 
8 | 510 | O=S(=O)(CF)c1ccc(Oc2cccc3sccc23)c2c1C(O)C(F)(F)C2 (stereo not shown) [Compound 242, 4-(Benzo[b]thiophen-4-yloxy)-2,2-difluoro-7-((fluoromethyl)sulfonyl)-2,3-dihydro-1H-inden-1-ol] | 

Second part, the molecule before the results:

Row | SMILES | EC50 [2, 3] [nM] | other results
9 | Cc1c(Oc2cc(F)cc(C#N)c2)ccc(S(=O)(=O)C(F)(F)F)c1/C=C/C(N)=O [(E)-3-[3-(3-cyano-5-fluoro-phenoxy)-2-methyl-6-(trifluoromethylsulfonyl)phenyl]prop-2-enamide] |  | IC50 [1]: > 100000 nM
10 | CC(C)(C)[S+]([O-])NC1c2c(S(C)(=O)=O)ccc(Oc3cc(F)cc(C#N)c3)c2CC1(F)F (stereo not shown) [N-[4-(3-cyano-5-fluoro-phenoxy)-2,2-difluoro-7-methylsulfonyl-indan-1-yl]-2-methyl-propane-2-sulfinamide] |  | IC50 [1]: > 100000 nM
11 | O=S(=O)(c1ccc(Oc2cc(F)cc(Cl)c2)c(Cl)c1CNC1CCOC1)C(F)F (stereo not shown) [N-[[2-chloro-3-(3-chloro-5-fluoro-phenoxy)-6-(difluoromethylsulfonyl)phenyl]methyl]tetra-hydrofuran-3-amine] |  | IC50 [1]: > 100000 nM
12 | Cc1c(Oc2cc(F)cc(C#N)c2)ccc(S(=O)(=O)C(F)(F)F)c1/C=C/C(=O)O [(E)-3-[3-(3-cyano-5-fluoro-phenoxy)-2-methyl-6-(trifluoromethylsulfonyl)phenyl]prop-2-enoic acid] |  | IC50 [1]: > 100000 nM
13 | CC(=O)NC1c2c(S(C)(=O)=O)ccc(Oc3cc(F)cc(F)c3)c2CC1(F)F (stereo not shown) [N-[4-(3,5-difluorophenoxy)-2,2-difluoro-7-methylsulfonyl-indan-1-yl]acetamide] |  | IC50 [1]: > 100000 nM
14 | CC(=O)c1ccc(Oc2cc(F)cc(Cl)c2)c(Br)c1C#N [6-acetyl-2-bromo-3-(3-chloro-5-fluoro-phenoxy)benzonitrile] |  | IC50 [1]: > 100000 nM
15 | O=S(=O)(c1ccc(Oc2cc(F)cc(Cl)c2)c(Cl)c1CCl)C(F)F [Compound 46, 2-Chloro-1-(3-chloro-5-fluorophenoxy)-3-(chloromethyl)-4-((difluoromethyl)sulfonyl)benzene] | 8100 | 
16 | Cc1c(S(C)(=O)=O)ccc(Oc2cc(F)cc(Cl)c2)c1C#N [Compound 50, 6-(3-Chloro-5-fluorophenoxy)-2-methyl-3-(methylsulfonyl)benzonitrile] | 1600 | 
17 | CS(=O)(=O)c1ccc(Oc2cc(F)cc(F)c2)c(C(F)F)c1C#N [Compound 93, 2-(Difluoromethyl)-3-(3,5-difluorophenoxy)-6-(methylsulfonyl)benzonitrile] | 680 | 
18 | Cc1c(S(C)(=O)=O)ccc(Oc2cc(F)cc(F)c2)c1C#N [Compound 52, 6-(3,5-Difluorophenoxy)-2-methyl-3-(methylsulfonyl)benzonitrile] | 1000 | 
19 | CS(=O)(=O)c1ccc(Oc2cc(F)cc(C#N)c2)c2c1[C@H](N)C(F)(F)C2 [Compound 165, 3-[(1S)-1-Amino-2,2-difluoro-7-methylsulfonyl-indan-4-yl]oxy-5-fluoro-benzonitrile] |  | EC50 [2]: 240 nM
20 | CCS(=O)(=O)c1ccc(Oc2cc(F)cc(C#N)c2)c2c1[C@H](O)C(F)(F)C2 [Compound 206, (S)-3-((7-(Ethylsulfonyl)-2,2-difluoro-1-hydroxy-2,3-dihydro-1H-inden-4-yl)oxy)-5-fluorobenzonitrile] |  | EC50 [2]: 62 nM
21 | N#Cc1cc(F)cc(Oc2ccc(S(=O)(=O)C(F)F)c(CO)c2Cl)c1 [Compound 42, 3-(2-Chloro-4-((difluoromethyl)sulfonyl)-3-(hydroxymethyl)phenoxy)-5-fluorobenzonitrile] | 450 | 
22 | CS(=O)(=O)c1ccc(Oc2cc(F)cc(C#N)c2)c2c1[C@H](O)[C@H](F)C2 [Compound 231, 3-Fluoro-5-(((1S,2R)-2-fluoro-1-hydroxy-7-(methylsulfonyl)-2,3-dihydro-1H-inden-4-yl)oxy)benzonitrile] |  | EC50 [2]: 36 nM
23 | N#Cc1cc(F)cc(Oc2ccc(S(=O)(=O)C(F)F)cc2C#N)c1 [Compound 134, 2-(3-Cyano-5-fluorophenoxy)-5-((difluoromethyl)sulfonyl)benzonitrile] | 2300 | 
24 | N#Cc1cc(F)cc(Oc2ccc(S(=O)(=O)C3CCC3)c3c2CC(F)(F)[C@H]3O)c1 [Compound 209, (S)-3-((7-(Cyclobutylsulfonyl)-2,2-difluoro-1-hydroxy-2,3-dihydro-1H-inden-4-yl)oxy)-5-fluorobenzonitrile] | 1900 | 
25 | CS(=O)(=O)c1ccc(Oc2cc(F)cc(Cl)c2)c2c1[C@H](O)C(F)(F)C2 [Compound 160, (1S)-4-(3-Chloro-5-fluoro-phenoxy)-2,2-difluoro-7-methylsulfonyl-indan-1-ol] | 10 | 
26 | [2H]C([2H])([2H])S(=O)(=O)c1ccc(Oc2cc(F)cc(C#N)c2)c2c1[C@]([2H])(O)C(F)(F)C2 [Compound 229] |  | EC50 [2]: 24 nM
27 | N#Cc1cc(Oc2ccc(S(=O)(=O)C(F)F)c3c2CC(F)(F)[C@H]3O)ccc1F [Compound 200, (S)-5-((7-((Difluoromethyl)sulfonyl)-2,2-difluoro-1-hydroxy-2,3-dihydro-1H-inden-4-yl)oxy)-2-fluorobenzonitrile] | 130 | 
28 | NCc1c(S(=O)(=O)C(F)F)ccc(Oc2cc(F)cc(Cl)c2)c1Br [Compound 85, (2-Bromo-3-(3-chloro-5-fluorophenoxy)-6-((difluoromethyl)sulfonyl)phenyl)methanamine] | 11800 | 
29 | N#Cc1cc(F)cc(Oc2ccc(S(=O)(=O)C(F)F)c(C#N)c2Cl)c1 [Compound 39, 2-Chloro-3-(3-cyano-5-fluorophenoxy)-6-((difluoromethyl)sulfonyl)benzonitrile] | 600 | 
30 | CNS(=O)(=O)c1ccc(Oc2cc(F)cc(F)c2)c2c1[C@H](O)C(F)(F)C2 [Compound 251, (S)-7-(3,5-Difluorophenoxy)-2,2-difluoro-3-hydroxy-N-methyl-2,3-dihydro-1H-indene-4-sulfonamide] |  | EC50 [2]: 53 nM
31 | CS(=O)(=O)c1ccc(Oc2cc(F)cc(C#N)c2)c2c1C(O)C(F)(F)C2 (stereo not shown) [Compound 223, 3-((2,2-Difluoro-1-hydroxy-7-(methylsulfonyl)-2,3-dihydro-1H-inden-4-yl)oxy)-5-fluorobenzonitrile] |  | EC50 [2]: 63 nM
32 | COC(=O)/C=C/c1c(S(=O)(=O)C(F)(F)F)ccc(Oc2cc(F)cc(C#N)c2)c1C [Compound 147, Methyl (E)-3-[3-(3-cyano-5-fluoro-phenoxy)-2-methyl-6-(trifluoromethylsulfonyl)phenyl]prop-2-enoate] | 7600 | 
33 | CS(=O)(=O)c1ccc(Oc2cc(F)cc(Cl)c2)c2c1C(O)CC2 (stereo not shown) [Compound 90, 4-(3-Chloro-5-fluorophenoxy)-7-(methylsulfonyl)-2,3-dihydro-1H-inden-1-ol] | 850 | 
34 | Cc1cc(Oc2cc(F)cc(C#N)c2)c2c(c1S(C)(=O)=O)C(O)C(F)(F)C2 (stereo not shown) [Compound 213, 3-((2,2-Difluoro-1-hydroxy-6-methyl-7-(methylsulfonyl)-2,3-dihydro-1H-inden-4-yl)oxy)-5-fluorobenzonitrile] | 770 | 
35 | CS(=O)(=O)c1ccc(Oc2cc(F)cc(C#N)c2)c2c1[C@@H](O)C(F)(F)C2 [Compound 226, (R)-3-((2,2-Difluoro-1-hydroxy-7-(methylsulfonyl)-2,3-dihydro-1H-inden-4-yl)oxy)-5-fluorobenzonitrile] |  | EC50 [2]: 3500 nM
36 | CS(=O)(=O)c1ccc(Oc2cc(F)cc(Cl)c2)c(C(F)F)c1CO [Compound 54, (3-(3-Chloro-5-fluorophenoxy)-2-(difluoromethyl)-6-(methylsulfonyl)phenyl)methanol] | 350 | 
37 | O=C1c2c(S(=O)(=O)C(F)F)ccc(Oc3ccc(F)c(F)c3)c2CC1(F)F [Compound 195, 7-((Difluoromethyl)sulfonyl)-4-(3,4-difluorophenoxy)-2,2-difluoro-2,3-dihydro-1H-inden-1-one] | 2560 | 
